Data: patent US20030065039A1, “Biologically active 1,3-bis-aromatic-prop-2-en-1-ones, 1,3-bis-aromatic-propan-1-ones, and 1,3-bis-aromatic-prop-2-yn-1-ones” (Statens Serum Institute, priority 1997, published 2003)

Experiments:
Clostridium perfringes = assay: Effect on anaerobic bacteria (growth); assay type: cell-based; conditions: at a concentration of 5 μg/ml
FRD (L. major) = assay: Effect on fumarate reductase of L. major promastigotes; assay type: biochemical, Leishmania major; conditions: incubation at 28° C. for 5 min
Procedure: FIG. 5. Effect of licochalcone A on Leishmania major fumarate reductase. Digitonin treated promastigotes was incubated with licochalcone A at 28° C. 30 min, and the remaining enzyme activity was measured. Data are mean ±SEM from 6 different experiments.
FIG. 6. Effect of licochalcone A on Leishmania major fumarate reductase. KCL-solubilised fumarate reductase was incubated with licochalcone A at 28° C. 30 min, and the remaining enzyme activity was measured. Data are mean ±SEM from 6 different experiments.
Parasites were harvested by centrifugation at 1000 g for 10 min, and were washed 2 times in an isotonic phosphate saline buffer (50 mM sodium phosphate, pH 7.2, 90 mM NaCl, 5 mM KCl). […]
NADH-FRD activity was determined as the rate of NADH-oxidation upon addition of 1 mM fumarate in the KCl-solubilized fraction. The reaction was monitored spectrophotometrically at 340 nm ((=6.2 mM^−1 cm^−1) using 100 μM NADH and usually 0.1 mg protein in both reference and sample cuvettes. The measurement was carried out in a Shimadzu UV-190 double-beam spectrophotometer. Protein concentrations were determined using a Bio-Rad protein assay (Bio-Rad Laboratories, 200 Alfred Nobel Dr. Hercules, Calif. 94547, USA).
KCl solubilized fraction of Leishmania major promastigotes was incubated with different concentrations of various oxygenated chalcones at 28° C. and the remaining FRD activity was measured.

NDH (L. major) = assay: Effect on L. major NADH dehydrogenase; assay type: biochemical, Leishmania major; conditions: incubation at 28° C.
Source text: FIG. 11. Effect of licochalcone A on Leishmania major NADH dehhydrogenase. […] Data are mean ±SEM from 6 different experiments.

NDH (J774) = assay: Effect on J774 cells NADH dehydrogenase; assay type: biochemical; conditions: incubation at 28° C. for 5 min
Procedure: FIG. 17. Effect of licochalcone A on J774 cells NADH dehydrogenase. Membrane rich fraction of parasite was incubated with licochalcone A at 28° C. for 5 min, the remaining enzyme activity was measured. Data are mean ±SEM from 4 different experiments.

SCC (L. major) = assay: Effect on L. major succinate-cytochrome c reductase; assay type: biochemical, Leishmania major; conditions: incubation at 28° C. for 5 min
Procedure: FIG. 12. Effect of licochalcone A on Leishmania major succinate-cytochrome c reductase. Membrane rich fraction of parasite was incubated with licochalcone A at 28° C. for 5 min, the remaining enzyme activity was measured. Data are mean ±SEM from 4 different experiments.

NCC (L. major) = assay: Effect on L. major NADH-cytochrome c reductase; assay type: biochemical, Leishmania major; conditions: incubation at 28° C. for 5 min
Procedure: FIG. 13. Effect of licochalcone A on Leishmania major NADH-cycochrome c reductase. Membrane rich fraction of parasite was incubated with licochalcone A at 28° C. for 5 min, the remaining enzyme activity was measured. Data are mean ±SEM from 4 different experiments.

Leishmania major = assay: Respiration of Leishmania major (O2 consumption, CO2 production); assay type: cell-based
[1] = test system: parasite mitochondrial dehydrogenase; assay: Parasite mitochondrial dehydrogenase activity; assay type: biochemical, Leishmania major

C=CC(C)(C)c1cc(/C=C/C(=O)c2ccc(O)cc2)c(OC)cc1O [Licochalcone A]
growth of Clostridium perfringes (Clostridium perfringes): completely inhibted | IC50 (FRD (L. major)): 54.7 μg/mg protein | IC50 (NDH (L. major)): 415.1 μg/mg protein | IC50 (NDH (J774)): 547.7 μg/mg protein | IC50 (SCC (L. major)): 647.6 μg/mg protein | IC50 (NCC (L. major)): 387.5 μg/mg protein | respiration of the parasite (O2 consumption, CO2 production) (Leishmania major): inhibited the respiration of the parasite in a concentration-dependent manner | activity of the parasite mitochondrial dehydrogenase [1]: inhibited the activity of the parasite mitochondrial dehydrogenase
